This note sets out measurements from US20250206724A1, “SUBSTITUTED 3-AMINO INDAZOLE DERIVATIVES AS KINASE INHIBITORS” (NERVIANO MEDICAL SCIENCES S.R.L., priority 2022, published 2025).

The test system of one test is EoL-1-cell. Briefly: Cytotoxicity assay (CellTiterGlo, 72 hours treatment), EoL-1. The settings on record: Homo sapiens, ATP determination, read-out: Cell line IC50 EoL-1-cell. The test is classed as cell-based, Human. Here is the method:
(§1) Cell Lines and Cell Cultures
(§2) All cell lines were seeded at a density ranging from 2,400 to 8,000 cells/well in 384-well cell culture microplates and incubated at […] in a humidified 5% […] atmosphere 24 hours before treatment. Compound solutions were directly administered to the cells using the D300e digital dispenser (Tecan) to obtain scalar final concentrations ranging from 5 nM to 10 μM (duplicate wells for each point), with 80 uL final volume per well. The final DMSO concentration in test wells was adjusted to 0.1% (v/v); control wells were mock-treated and contained the same final concentration of DMSO.
(§3) Cell viability was determined after 72 hours treatment by ATP determination in each test well with a luciferase-based detection system (CellTiterGlo, Promega, Madison, WI, USA), following manufacturer's instructions. The intensity of emitted light was measured using an EnVision reader (PerkinElmer, Waltham, MA USA) and expressed as RLU. One to three independent experiments were performed for each cell line, as indicated.
(§4) Analysis of Antiproliferative Data
(§5) Cell growth inhibitory activity was evaluated comparing treated versus control data using the Assay Explorer software suite (Symix Technologies Inc.). IC50s values were calculated by sigmoidal fitting interpolation using the following quadriparametric Hill equation: […]
(§6) The Top, Bottom and Hill slope parameters were left free to assume any value, but only curves whose Hill slope had values between 0.5 and 4 were arbitrarily considered acceptable and used to calculate the average IC50s. Curves too steep (HillSlope≥4) or too slight (HillSlope≤0.5) were not included (Table C).

Another test relates to MOLM-13. Kind of test: Cytotoxicity assay (CellTiterGlo, 72 hours treatment), MOLM-13. Type of test: cell-based, Human. The note with it: Homo sapiens, MOLM-13 acute myeloid leukemia cells, ATP determination, read-out: Cell line IC50 MOLM-13. Here is the method: as §1, §2, §3, §4, §5, §6
In general terms: Cellular ATP, detected with luciferase, serves as a proxy for viable cell number.

The subject of a further test is NB-4. Briefly: Cytotoxicity assay (CellTiterGlo, 72 hours treatment), NB-4. The test is classed as cell-based, Human. The settings on record: Homo sapiens, NB-4 acute myeloid leukemia cells, ATP determination, read-out: Cell line IC50 NB-4. Here is the method: as §1, §2, §3, §4, §5, §6
For a further test, the target named is T1, CDK11A (Homo sapiens, UniProt Q9UQ88).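 Further: compound preincubated 30 min with CDK11A-p58, then probe added and polarization (mP) read 15 min later, 0% displacement is probe plus enzyme, 100% is probe alone.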
T1 sequence (Q9UQ88 346-783): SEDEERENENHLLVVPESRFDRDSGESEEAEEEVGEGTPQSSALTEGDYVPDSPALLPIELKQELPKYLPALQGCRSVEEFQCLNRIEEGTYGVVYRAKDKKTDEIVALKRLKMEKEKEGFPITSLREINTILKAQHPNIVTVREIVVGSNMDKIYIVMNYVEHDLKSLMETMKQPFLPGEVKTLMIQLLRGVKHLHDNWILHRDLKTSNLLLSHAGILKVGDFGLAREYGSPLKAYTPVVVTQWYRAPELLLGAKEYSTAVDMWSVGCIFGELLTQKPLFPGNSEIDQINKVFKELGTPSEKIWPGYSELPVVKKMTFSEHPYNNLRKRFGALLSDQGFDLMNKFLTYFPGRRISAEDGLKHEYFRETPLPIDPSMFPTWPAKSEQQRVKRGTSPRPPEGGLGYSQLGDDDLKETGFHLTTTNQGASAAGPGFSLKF
The settings on record: displacement of SNS-032-Atto590 probe (0.002 μM) from CDK11A-p58 (0.032 uM), fluorescence polarization. (Fluorescence polarisation rises when a labelled molecule tumbles more slowly, as on binding a larger partner.)

[1] abbreviates: EOL1, 72 h, EoL-1 acute myeloid leukemia cells.

Structures can show the parent of a compound that is named as a salt. Where two headings read alike, the source gives them in different places.

On to `O=C(Nc1n[nH]c2ccc(-c3cc([N+](=O)[O-])ccc3Cl)cc12)[C@@H]1CCCNC1` [cpd 26, (3R)-N-[5-(2-Chloro-5-nitrophenyl)-1H-indazol-3-yl]piperidine-3-carboxamide hydrochloride], for which the IC50 in the test with EoL-1-cell (EOL1, EoL-1 acute myeloid leukemia cells) was 126 nM; in the test on MOLM-13, 154 nM; with NB-4, 141 nM. Besides, the DC50 on CDK11A was 23 nM.
As for `O=C(Nc1n[nH]c2ccc(-c3c(Cl)cccc3Cl)cc12)[C@@H]1CCNC1` [compound 167, (3R)-N-[5-(2,6-Dichlorophenyl)-1H-indazol-3-yl]pyrrolidine-3-carboxamide hydrochloride], the IC50 with EoL-1-cell (setting [1]) was found to be 651 nM; in the test on MOLM-13 (MOLM-13, 72 h) it was 610 nM; in the test on NB-4 (NB-4, 72 h) it was 525 nM. At CDK11A, this molecule had a DC50 of 27 nM.
Regarding `O=C(Nc1n[nH]c2ccc(-c3c(Cl)cccc3Cl)cc12)C1CCCNC1` (stereo not drawn) [compound 157, N-[5-(2,6-Dichlorophenyl)-1H-indazol-3-yl]piperidine-3-carboxamide hydrochloride], the IC50 in the test with EoL-1-cell (setting [1]) worked out at 590 nM; in the test with MOLM-13 (MOLM-13, 72 h) it was 521 nM; in the test on NB-4 (NB-4, 72 h) it was 512 nM. On CDK11A, the DC50 turned out to be 59 nM.

By IC50 is commonly meant the concentration that gives 50% inhibition.
